Measured values from article PMC9246869, “Allosteric inhibition of PPM1D serine/threonine phosphatase via an altered conformational state” (Nature Communications, 2022).
Values joined by “and” are separate entries in the source; they are usually repeats but may differ in a detail not shown here. Equal values may be shown once. Read-outs that look alike come from different tables or passages of the source.

Experiments:
[1] = target: T1, PPM1DΔhinge (Homo sapiens, UniProt O15297, DEL155-163/G166S/M164G/T165G); test: FDP (fluorescein diphosphate) enzymatic assay; type: biochemical; conditions: for FDP Assay, signal relative to 0 nM GSK (=100): PPM1DΔHinge, individual runs, listed as GSK
T1 construct: PPM1D1–154-GGS-167–420 (PPM1D∆hinge); His(6)-SUMO (N, cleaved yes); made in house; host or cells: E. coli BL21 (DE3)
T1 sequence (O15297 with tags, fused parts or gaps DEL155-163/M164G/T165G/G166S): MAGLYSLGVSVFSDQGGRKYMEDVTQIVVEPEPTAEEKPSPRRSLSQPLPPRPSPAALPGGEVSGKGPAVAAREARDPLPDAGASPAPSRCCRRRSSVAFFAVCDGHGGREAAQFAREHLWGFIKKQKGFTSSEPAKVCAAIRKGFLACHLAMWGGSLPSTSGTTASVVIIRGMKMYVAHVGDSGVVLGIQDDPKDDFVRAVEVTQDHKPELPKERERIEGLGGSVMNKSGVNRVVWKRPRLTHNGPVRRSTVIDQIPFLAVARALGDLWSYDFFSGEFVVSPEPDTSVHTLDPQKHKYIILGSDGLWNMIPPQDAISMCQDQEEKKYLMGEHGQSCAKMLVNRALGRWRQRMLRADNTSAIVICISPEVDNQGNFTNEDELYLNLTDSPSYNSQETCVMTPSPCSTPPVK
Method: The FDP assay was adapted from reported protocol with minor modifications. Fluorescein diphosphate tetra-ammonium salt (CAS 217305-49-2) was purchased from AAT Bioquest (Cat No.11600). The assay was carried out on a 384-well plate (Corning Cat No.3575) with assay buffer containing 50 mM Tris (pH 7.5), 50 mM NaCl, 30 mM MgCl2, 0.01% tween 20, and 2% DMSO. Reactions were initiated with the addition of FDP to a solution containing wild-type PPM1D or one of its variants, to a final concentration of 5 nM for PPM1D and 100 μM for FDP (or as indicated in Kcat/KM measurements). A fluorescent signal was detected on a Spectramax microplate reader (485/530 nm) for the next 15 min at room temperature with an interval for data collection of 45 s. For the IC50 measurement, the compound was pre-incubated with PPM1D for 1 h before addition of the substrate.

[2] = target: T2, PPM1D1–420 (Homo sapiens, UniProt O15297); test: Isothermal titration calorimetry (ITC); type: binding; set-up: DH / DS: unit not given here; conditions: Fig 3F
T2 construct: PPM1D1–420 was PCR-amplified from the synthesized gene with BsaI sites; His(6)-SUMO (N, cleaved yes); made in house; host or cells: E. coli BL21 (DE3)
T2 sequence (O15297 1-420): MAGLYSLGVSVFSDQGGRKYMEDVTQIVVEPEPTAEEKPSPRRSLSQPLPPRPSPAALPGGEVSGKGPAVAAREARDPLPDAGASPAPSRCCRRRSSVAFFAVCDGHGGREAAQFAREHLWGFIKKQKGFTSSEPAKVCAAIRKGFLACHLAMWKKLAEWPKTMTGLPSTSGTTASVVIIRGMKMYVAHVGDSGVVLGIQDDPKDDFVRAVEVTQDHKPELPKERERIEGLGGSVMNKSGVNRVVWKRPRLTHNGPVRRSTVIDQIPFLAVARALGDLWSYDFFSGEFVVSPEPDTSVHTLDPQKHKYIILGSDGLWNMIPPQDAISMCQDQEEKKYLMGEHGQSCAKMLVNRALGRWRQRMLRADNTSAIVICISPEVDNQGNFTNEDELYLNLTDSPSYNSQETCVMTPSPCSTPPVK
Method: (§1) Assessments of the analog of GSK2830371 (analog 1d) binding to wild-type and mutant proteins were conducted using an Auto-iTC200 microcalorimeter (Malvern) (see section on synthesis of analog 1d below). The protein was dialyzed extensively into 25 mM HEPES (pH 7.4), 150 mM NaCl, 10 mM MgCl2 and 1 mM TCEP. The dialyzed protein was used to prepare fresh working solutions of protein (20 µM) and analog 1d (200 µM) in 2% DMSO (v/v) in the same buffer. Titrations were performed at 25 °C and consisted of a single initial injection of 0.4 µL, followed by 19 injections of 2 µL of compound into a sample cell containing wild-type or mutant PPM1D, with an interval of 150 s between successive injections. The reference power and stirring speed were set at […] and 1000 RPM, respectively. Heat of dilution and mixing were obtained from injections of analog 1d into ITC buffer lacking protein and subtracted from the integrated data before curve fitting. Thermodynamic data were analyzed using Origin 7.0 software and fitted by non-linear regression to the model for a single binding site.

[3] = target: T3, PPM1DΔflap (Homo sapiens, UniProt O15297, DEL219-231/DEL235-284/E287S/S285N); test: Isothermal titration calorimetry (ITC); type: binding; conditions: Sup Fig 5A
T3 construct: PPM1D1–218-GGSNGS-288–420 (PPM1D∆flap); His(6)-SUMO (N, cleaved yes); made in house; host or cells: E. coli BL21 (DE3)
T3 sequence (O15297 with tags, fused parts or gaps DEL219-231/DEL235-284/S285N/E287S): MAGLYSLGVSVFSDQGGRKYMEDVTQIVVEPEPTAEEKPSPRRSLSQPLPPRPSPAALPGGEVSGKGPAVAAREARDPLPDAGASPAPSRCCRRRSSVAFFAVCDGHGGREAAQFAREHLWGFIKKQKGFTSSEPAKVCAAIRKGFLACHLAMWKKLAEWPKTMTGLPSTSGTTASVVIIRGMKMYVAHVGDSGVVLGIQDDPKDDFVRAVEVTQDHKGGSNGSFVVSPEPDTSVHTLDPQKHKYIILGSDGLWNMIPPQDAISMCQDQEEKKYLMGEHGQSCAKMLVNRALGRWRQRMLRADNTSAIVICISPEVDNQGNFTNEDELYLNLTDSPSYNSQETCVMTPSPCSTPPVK
Method: as §1

[4] = target: T1, PPM1DΔhinge; test: Isothermal titration calorimetry (ITC); type: binding; conditions: Sup Fig 5C
Method: as §1

[5] = ITC stoichiometry, average of 2 trials

Cc1ncc(Cl)cc1NCc1ccc(C(=O)N[C@@H](CC2CCCC2)C(=O)NC2CC2)s1 [GSK2830371] was tested. Which “increase of IC50 in FDP assay upon hinge deletion” value ([1]; PPM1DΔhinge versus PPM1D1–420) did it give?
Its value is 100 fold.

What about the “FDP Assay, signal relative to 0 nM GSK (=100)” value ([1]; [GSK] 9.76562 nM) of the same compound?
The value was 99.774 and 81.7509.

What about the “FDP Assay, signal relative to 0 nM GSK (=100)” value ([1]; [GSK] 19.5312 nM) of the same compound?
The value was 74.1093 and 82.0598.

And the “FDP Assay, signal relative to 0 nM GSK (=100)” value ([1]; [GSK] 39.0625 nM)?
Its value is 92.7672 and 94.3849.

And the “FDP Assay, signal relative to 0 nM GSK (=100)” value ([1]; [GSK] 78.125 nM)?
The value was 88.4223 and 95.7187.

What about the “FDP Assay, signal relative to 0 nM GSK (=100)” value ([1]; [GSK] 156.25 nM) of the same compound?
The value was 86.3292 and 93.2128.

What about the “FDP Assay, signal relative to 0 nM GSK (=100)” value ([1]; [GSK] 312.5 nM) of the same compound?
Its value is 78.7193 and 77.5806.

And the “FDP Assay, signal relative to 0 nM GSK (=100)” value ([1]; [GSK] 625 nM)?
The value was 74.7657 and 65.5885.

And the “FDP Assay, signal relative to 0 nM GSK (=100)” value ([1]; [GSK] 1250 nM)?
The value was 60.0936 and 55.4697.

What about the “FDP Assay, signal relative to 0 nM GSK (=100)” value ([1]; [GSK] 2500 nM) of the same compound?
The value was 47.8958 and 40.0931.

And the “FDP Assay, signal relative to 0 nM GSK (=100)” value ([1]; [GSK] 5000 nM)?
Its value is 6.587 and 19.2353.

And the “FDP Assay, signal relative to 0 nM GSK (=100)” value ([1]; [GSK] 10000 nM)?
The value was 0.167 and 0.2855.

And the DH ([2]; Average of 3 trials)?
The DH was -3090.67.

What about the DS ([2]; Average of 3 trials) of the same compound?
The DS was 26.3.

What about the DH ([2]; individual trials) of the same compound?
Its DH is -2879 and -3158 and -3235.

And the DS ([2]; individual trials)?
The DS was 27.7 and 25.8 and 25.4.

What about the “N Average” value [3, 5] of the same compound?
The value was 1.11.

What about the “DH Average” value ([3]; ITC, average of 2 trials) of the same compound?
The value was -14.43 kcal/mol.

What about the “DS Average” value ([3]; ITC, average of 2 trials) of the same compound?
Its value is -12.15 cal/mol/deg.

And the Kd ([3]; ITC, average of 2 trials, read-out: Kd Average)?
Its Kd is 11.9 nM.

And the DH ([3]; ITC, individual trials)?
Its DH is -14.15 kcal/mol and -14.71 kcal/mol.

And the DS ([3]; ITC, individual trials)?
Its DS is -11.3 cal/mol/deg and -13 cal/mol/deg.

What about the Kd ([3]; ITC, individual trials, read-out: Kd) of the same compound?
Its Kd is 12.2 nM and 11.5 nM.

And the “N Average” value [4, 5]?
Its value is 0.8785.

What about the “DH Average” value ([4]; ITC, average of 2 trials) of the same compound?
The value was -3.817 kcal/mol.

And the “DS Average” value ([4]; ITC, average of 2 trials)?
The value was 13.65 cal/mol/deg.

What about the DH ([4]; ITC, individual trials) of the same compound?
Its DH is -3.047 kcal/mol and -4.587 kcal/mol.

And the DS ([4]; ITC, individual trials)?
Its DS is 16.6 cal/mol/deg and 10.7 cal/mol/deg.
